The source made the active and inactive calls.
How the values were obtained:
[1] = viability of HCT116 lacking mutant beta-catenin – cell-based, human colon tumor, dose response (AID 1045); assay type: functional;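 further: HCT116 colon tumor cells with beta catenin knocked out; cells exposed to compound for 60 hours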
[2] = molecular target: 5-hydroxytryptamine receptor 2A (Mus musculus, UniProt P35363); assay type: functional, cell-based;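 further: CHO-K1 cells with tagged receptor and beta-arrestin; agonist potency measured as compound-induced activation of the receptor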
5-hydroxytryptamine receptor 2A, sequence (P35363 whole entry): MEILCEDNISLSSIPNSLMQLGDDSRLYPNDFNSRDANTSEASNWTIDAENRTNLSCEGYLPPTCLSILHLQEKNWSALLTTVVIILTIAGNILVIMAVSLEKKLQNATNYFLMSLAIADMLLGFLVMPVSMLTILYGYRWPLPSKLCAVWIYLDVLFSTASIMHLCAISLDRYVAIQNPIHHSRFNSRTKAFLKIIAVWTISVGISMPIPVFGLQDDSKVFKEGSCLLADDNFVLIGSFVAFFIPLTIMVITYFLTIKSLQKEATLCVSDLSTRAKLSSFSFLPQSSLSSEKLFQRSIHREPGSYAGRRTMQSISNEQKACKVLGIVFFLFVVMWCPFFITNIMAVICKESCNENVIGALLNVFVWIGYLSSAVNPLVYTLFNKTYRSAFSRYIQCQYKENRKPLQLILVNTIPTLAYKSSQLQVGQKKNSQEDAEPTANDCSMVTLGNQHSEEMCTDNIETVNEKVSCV

[3] = molecular target: 5-hydroxytryptamine receptor 1A (Homo sapiens, UniProt P08908); assay type: functional
5-hydroxytryptamine receptor 1A, sequence (P08908 whole entry): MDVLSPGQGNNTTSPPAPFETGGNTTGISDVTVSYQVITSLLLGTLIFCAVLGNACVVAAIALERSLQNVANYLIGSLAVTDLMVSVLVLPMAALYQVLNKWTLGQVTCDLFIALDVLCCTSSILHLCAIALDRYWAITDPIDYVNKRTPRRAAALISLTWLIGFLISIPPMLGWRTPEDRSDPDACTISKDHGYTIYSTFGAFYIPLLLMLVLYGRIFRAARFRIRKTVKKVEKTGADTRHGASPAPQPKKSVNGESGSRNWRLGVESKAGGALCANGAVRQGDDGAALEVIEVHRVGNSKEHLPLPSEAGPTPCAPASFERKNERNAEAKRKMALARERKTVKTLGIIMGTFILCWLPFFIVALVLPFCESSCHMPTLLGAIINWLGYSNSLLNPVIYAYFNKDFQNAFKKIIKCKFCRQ

[4] = molecular target: Mu-type opioid receptor (Homo sapiens, UniProt P35372); assay type: functional, cell-based;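 further: U2OS cells with beta-arrestin recruitment to OPRM1 by beta-gal complementation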
Mu-type opioid receptor, sequence (P35372 whole entry): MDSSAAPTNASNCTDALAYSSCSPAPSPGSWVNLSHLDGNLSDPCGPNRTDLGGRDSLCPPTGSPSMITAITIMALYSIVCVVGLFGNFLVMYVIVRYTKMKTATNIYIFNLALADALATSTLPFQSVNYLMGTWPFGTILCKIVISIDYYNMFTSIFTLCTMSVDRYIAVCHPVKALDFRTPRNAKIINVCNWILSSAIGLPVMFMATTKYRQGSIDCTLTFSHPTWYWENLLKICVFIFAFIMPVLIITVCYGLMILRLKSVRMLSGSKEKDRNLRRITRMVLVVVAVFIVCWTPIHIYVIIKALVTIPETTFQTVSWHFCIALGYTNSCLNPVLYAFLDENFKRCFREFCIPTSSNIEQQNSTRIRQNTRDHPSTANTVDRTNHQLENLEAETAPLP

[5] = viability of PTEN-deleted HCT116 cells – cell-based, HCT116 PTEN knockout, dose response (AID 1047); assay type: functional;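 further: HCT116 colon tumor cells with PTEN knocked out; cells exposed to compound for 60 hours before readout; potency for loss of cell viability measured by luminescence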
[6] = molecular target: Sphingosine 1-phosphate receptor 2 (Homo sapiens, UniProt O95136); experiment: Dose Response Cell Based Assay for Antagonists of the S1P2 Receptor. [Related pubchem assays: 856, 736 ]; assay type: functional
Sphingosine 1-phosphate receptor 2, sequence (O95136 whole entry): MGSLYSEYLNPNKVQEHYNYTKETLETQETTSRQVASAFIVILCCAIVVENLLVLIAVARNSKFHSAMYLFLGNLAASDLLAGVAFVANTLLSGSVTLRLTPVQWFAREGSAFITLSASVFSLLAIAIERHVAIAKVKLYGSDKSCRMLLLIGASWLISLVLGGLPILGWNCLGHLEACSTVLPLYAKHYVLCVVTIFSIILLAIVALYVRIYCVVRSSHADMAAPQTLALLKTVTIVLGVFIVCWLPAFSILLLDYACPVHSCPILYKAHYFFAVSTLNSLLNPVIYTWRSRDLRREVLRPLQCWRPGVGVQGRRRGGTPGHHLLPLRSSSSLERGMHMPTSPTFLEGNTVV

[7] = molecular target: Prothrombin (Homo sapiens, UniProt P00734); experiment: Thrombin 1536 HTS Dose Response Confirmation. [Related pubchem assays: 1046 (Thrombin 1536 HTS; hits were confirmed in this assay)]; assay type: functional
[8] = molecular target: Cytochrome P450 2C9 (Homo sapiens, UniProt P11712)
Cytochrome P450 2C9, sequence (P11712 whole entry): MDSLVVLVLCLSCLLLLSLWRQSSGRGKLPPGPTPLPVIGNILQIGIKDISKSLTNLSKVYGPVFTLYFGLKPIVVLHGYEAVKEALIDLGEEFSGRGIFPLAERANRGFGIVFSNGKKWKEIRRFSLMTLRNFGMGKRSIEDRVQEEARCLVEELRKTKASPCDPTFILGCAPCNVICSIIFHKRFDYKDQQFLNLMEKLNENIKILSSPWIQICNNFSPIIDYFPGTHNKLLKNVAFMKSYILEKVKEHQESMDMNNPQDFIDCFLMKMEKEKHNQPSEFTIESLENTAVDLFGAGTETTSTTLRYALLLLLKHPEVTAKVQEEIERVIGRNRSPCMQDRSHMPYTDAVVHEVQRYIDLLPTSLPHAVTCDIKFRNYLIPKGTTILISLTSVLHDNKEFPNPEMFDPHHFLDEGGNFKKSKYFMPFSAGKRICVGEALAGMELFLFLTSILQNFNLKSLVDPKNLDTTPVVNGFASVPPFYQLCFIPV

[9] = molecular target: Ephrin type-A receptor 4 (Mus musculus, UniProt Q03137); experiment: EphA4 ligand-binding antagonists – biochemical, colorimetric, mouse EphA4, primary screen (AID 689); assay type: functional
Ephrin type-A receptor 4, sequence (Q03137 whole entry): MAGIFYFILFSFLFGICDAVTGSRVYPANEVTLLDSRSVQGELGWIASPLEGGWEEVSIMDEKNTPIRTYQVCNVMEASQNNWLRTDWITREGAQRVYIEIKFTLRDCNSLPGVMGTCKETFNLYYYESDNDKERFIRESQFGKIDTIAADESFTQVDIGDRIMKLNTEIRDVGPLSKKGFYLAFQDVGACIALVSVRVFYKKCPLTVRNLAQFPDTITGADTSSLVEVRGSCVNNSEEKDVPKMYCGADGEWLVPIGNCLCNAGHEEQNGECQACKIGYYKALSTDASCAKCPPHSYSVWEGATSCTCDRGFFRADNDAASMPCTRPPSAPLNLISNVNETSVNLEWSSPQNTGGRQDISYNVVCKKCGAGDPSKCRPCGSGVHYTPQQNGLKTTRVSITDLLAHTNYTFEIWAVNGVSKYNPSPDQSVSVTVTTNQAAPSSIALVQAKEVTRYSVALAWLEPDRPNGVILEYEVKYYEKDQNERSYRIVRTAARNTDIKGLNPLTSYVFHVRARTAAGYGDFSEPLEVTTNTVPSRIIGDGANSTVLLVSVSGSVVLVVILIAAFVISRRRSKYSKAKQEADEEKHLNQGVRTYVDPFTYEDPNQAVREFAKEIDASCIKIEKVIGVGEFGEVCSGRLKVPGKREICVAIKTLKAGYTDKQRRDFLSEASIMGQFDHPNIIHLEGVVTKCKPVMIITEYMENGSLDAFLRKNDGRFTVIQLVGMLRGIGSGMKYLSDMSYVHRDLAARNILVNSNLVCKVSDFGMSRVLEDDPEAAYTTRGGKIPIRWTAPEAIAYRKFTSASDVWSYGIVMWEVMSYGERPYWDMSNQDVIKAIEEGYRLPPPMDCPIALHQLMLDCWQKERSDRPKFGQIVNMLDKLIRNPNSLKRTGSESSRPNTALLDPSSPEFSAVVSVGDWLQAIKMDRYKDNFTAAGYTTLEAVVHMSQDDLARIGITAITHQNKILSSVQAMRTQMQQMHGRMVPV

CCCCc1ccc2[nH]cc(CCN)c2c1
EC50 [1]: 12.6 µM (active) | EC50 [2]: 13.3 µM (inactive) | EC50 [3]: 1.81 µM (active) | EC50 [4]: 92.5 µM (inactive) | EC50 [5]: 10.6 µM (active)

COC(=O)c1sc2cc(C(F)(F)F)cnc2c1-c1cccs1
IC50 [6]: > 30 µM (not active)

COC(=O)c1c(C)nn(-c2ccccc2)c1-n1cccc1
IC50 [7]: > 50 µM (not active)

COc1ccc(NC(=NC(C)=O)Nc2nc(C)cc(C)n2)cc1OC
IC50 [7]: 2.95 µM (active)

O=C(Nc1cccc2ccccc12)/C(=C/c1ccc([N+](=O)[O-])cc1)NC(=O)c1ccccc1
AC50 [8]: 5.01 µM (inconclusive) | IC50 [9]: 11.4 µM (active)
